Assay results from ChEMBL document CHEMBL5385950, “Terpenoids from the Soft Coral Stereonephthya bellissima” (J Nat Prod, 2024).
Activity calls are given as the source filed them. No cut-off for these calls is given here.

Organism: Danio rerio
Test: Pro-angiogenesis activity against PTK787 induced vascular injury in Tg(vegfr2: EGFP) zebrafish at 20 uM measured after 24 hrs by fluorescence imaging analysis
Assay type: functional, organism-based

With CC(=O)C1=CCC[C@]23O[C@H]2CC[C@](C)(O)[C@@]13C the Activity was “Active”.
